Results published in patent EP0252983B1, “SALTS OF N-(VINYLOXIETHYL)DITHIOCARBAMIC ACID, METHOD OF OBTAINING THEREOF AND […] ON THEM” (priority 1985, dated 1987).

Experiments:
[1] = tested on: Acremonium charticola; assay: Mycelial growth inhibition on agar (contact activity); type: cell-based; details: Würzeagar
Protocol: (§1) Die Prüfungen werden nach dem Verfahren zur Ermittlung der Kontaktaktivität durchgeführt. Man verwendet das in Wasser gelöste Kalium-N-(vinyloxyäthyl)dithiocarbamat, führt es in ein Nährmedium ein und vergießt auf Petri-Schalen. Nach 24 Stunden wird mit Pilzmyzelium nach einem Stichverfahren geimpft. Dann temperiert man die Schalen innerhalb von 5 Tagen bei einer zwischen 24 und 26 °C liegenden Temperatur und mißt den Durchmesser von Pilzkolonien, ermittelt den Prozentsatz der Hemmung des Myzelwachstums (S) ausgehend von Angaben am 5. Tag nach der Abbott-Formel [drawing 13] worin dc für den Durchmesser der Pilzkolonien, de für den Durchmesser von Pilzkolonien in der Schale stehen, wo ein die zu prüfenden Stoffe enthaltendes Medium vorhanden ist. Dieses Verfahren zur Ermittlung der mikrobiologischen Aktivität ist in anderen Beispielen verwendet.
(§2) Die Pilzkulturen werden auf Würzeagar gezüchtet. Ergebnisse, erhalten bei der Prüfung der fungiziden Aktivität gegen reine Kulturen von Mikroorganismen, welche Bioschädigungen hervorrufen, sind in der Tabelle 1 dargestellt.

[2] = tested on: Acremonium cowum; assay: as above; type: cell-based; details: Würzeagar
Protocol: as §1, §2

[3] = tested on: Cladosporium cladosporioides; assay: as above; type: cell-based; details: Würzeagar
Protocol: as §1, §2

[4] = tested on: Cladosporium resinae; assay: as above; type: cell-based; details: Würzeagar
Protocol: as §1, §2

[5] = tested on: Geotrichum candidum Link; assay: as above; type: cell-based; details: Würzeagar
Protocol: as §1, §2

[6] = tested on: Oidium Sp.; assay: as above; type: cell-based; details: Würzeagar
Protocol: as §1, §2

[7] = tested on: Penicillium charlesii; assay: as above; type: cell-based; details: Würzeagar
Protocol: as §1, §2

[8] = tested on: Penicillium chrysogenum; assay: as above; type: cell-based; details: Würzeagar
Protocol: as §1, §2

[9] = tested on: Walrotiela subiculesa; assay: as above; type: cell-based; details: Würzeagar
Protocol: as §1, §2

[10] = tested on: Fusarium moniliforme; assay: as above; type: cell-based; details: Wirkstoffkonzentration 0,003 %; Würzeagar; Tabelle 7
Protocol: as §1
(§3) Tabelle 2 zeigt die Angaben für die fungizide Aktivität von Kalium-N-(vinyloxyäthyl)dithiocarbamat und bekannten wirksamen Fungiziden Poly arbazin und TMTD. Der zu prüfende Stoff wurde im Laufe der Versuche in Wasser aufgelöst, und die Kulturen wurden auf einem Kartoffel-Glukose-Nährmedium gezüchtet.

[11] = tested on: Fusarium sambucinum; assay: as above; type: cell-based; details: Wirkstoffkonzentration 0,003 %; Würzeagar; Tabelle 7
Protocol: as §1, §3

[12] = tested on: Aspergillus niger; assay: as above; type: cell-based; details: Wirkstoffkonzentration 0,003 %, Würzeagar
[13] = tested on: Paecilomyces varioti; assay: as above; type: cell-based; details: Wirkstoffkonzentration 0,003 %; Würzeagar; Tabelle 8
Protocol: as §1

[14] = tested on: Penicillium funiculosum; assay: as above; type: cell-based; details: Wirkstoffkonzentration 0,003 %; Würzeagar; Tabelle 8
Protocol: as §1

[15] = tested on: Stereum hirsutum; assay: as above; type: cell-based; details: Wirkstoffkonzentration 0,003 %; Würzeagar; Tabelle 8
Protocol: as §1

[16] = tested on: Rhizoctonia solani; assay: as above; type: cell-based; details: Wirkstoffkonzentration 0,003 %; Würzeagar; Tabelle 7
Protocol: as §1
Die fungizide Aktivität von Zink-bis-(N-vinyloxyäthyldithiocarbamat) gegen reine Kulturen von Pilzen Fusarium moniliforme, Fusarium sambucinum, Aspergillus niger, Rhizoctonia solani, Cladosporium resinae, Cladosporium cladosporioides, Acremonium cowum, Acremonium charticola, Penicillium chrysogenum, Penicillium charlesii Smith, Penicillium funiculosum, Geotrichum candidum Link, Walrotiela subiculesa, Oidium sp., Paecilomyces varioti, Stereum hirsutum wird gemäß Beispiel 8 untersucht.
(§4) Als Nährmedium dient Würzeagar.

[17] = tested on: Sphaeropsis malorum; assay: as above; type: cell-based; details: Wirkstoffkonzentration 0,003 %; Würzeagar; Tabelle 7
Protocol: as §1, §4

[18] = tested on: Wurzelfäule von Gurken; assay: Cucumber root rot test in treated non-sterile soil; type: in vivo
Excerpt: Man nimmt 100 g unsterilen Boden, enthaltend 1 Teil Humus, 1 Teil Rasenboden, 1 Teil Sand, gibt darin ein Präparat, das Zink-bis-(N-vinyloxyäthyldithiocarbamat) ausgehend von 200 kg/ha Wirkstoff enthält.
Das Präparat wird wie folgt hergestellt: Einer gesättigten Lösung des genannten Salzes in Azeton gibt man einige Tropfen Emulgiermittel (hydroxyäthylierte Alkylphenole) zu und verdünnt mit Wasser. Innerhalb von 7 bis 8 Tagen begießt man dann bodenhaltige Gefäße mit Wasser, bis der Boden in einen Zustand gebracht wird, der 60% der vollen Wasseraufnahmekapazität des Feldes beträgt. Nach dieser Zeit erfolgt die Aussaat von Gurkensamen, eingequollen im voraus in einer 0,1%igen KMn04-Lösung innerhalb von 2 Stunden. In jedes Gefäß werden je 10 Samen auf eine Tiefe von 1 bis 1,5 cm gesät. Nach 7 bis 9 Tagen berücksichtigt man die Keimungsfähigkeit von Samen, dann bestimmt man nach 3 Tagen den Befallumfang von Pflanzen durch Wurzelfäule, hervorgerufen durch einen Erregerkomplex. Die Versuche werden viermal wiederholt, als Vergleichsmuster dient Milon. Die Prüfergebnisse zeigt Tabelle 9.

[19] = tested on: Bacillus; assay: Bactericidal activity on agar (concentration of complete growth inhibition); type: cell-based; details: % bezogen auf den Wirkstoff; am 5. Tag
Protocol: (§5) Geprüft wird die bakterizide Aktivität von Kalium-, Natrium-, Zink- und Kupfersalzen der N-(Vinyloxyäthyl)dithiocarbamidsäure gegen Bakterien der Gattungen Bacillus, Micrococcus, Pseudomonas, Escherichia und Xantomonas.
(§6) Man stellt wäßrige Stofflösungen verschiedener Konzentration her, die so berechnet werden, daß die Stoffkonzentration in der Petri-Schale bei der Gabe von 1 ml Lösung in das geschmolzene Nährmedium (45 bis 50 °C) zwischen 0,003 und 25 % (bezogen auf den Wirkstoff) schwankt. Nach 18 bis 24 Stunden bringt man auf die Oberfläche des Nährmediums 0,1 ml wäßrige Suspension eintägiger reiner Kulturen von Bakterien auf und verteilt sie gleichmäßig. In Kontrollschalen verteilt sich 0,1 ml Wasser über die Oberfläche des Nährmediums. Die Inkubation erfolgt bei 37 °C innerhalb von 5 Tagen. Die Wirksamkeit der Stoffe wird nach dem Auftreten des Bakterienwachstums auf der Oberfläche des Nährmediums eingeschätzt. Die Prüfergebnisse sind in der Tabelle 13 dargestellt.

[20] = tested on: Escherichia; assay: as above; type: cell-based; details: % bezogen auf den Wirkstoff; am 5. Tag
Protocol: as §5, §6

[21] = tested on: Micrococcus; assay: as above; type: cell-based; details: % bezogen auf den Wirkstoff; am 5. Tag
Protocol: as §5, §6

[22] = tested on: Pseudomonas; assay: as above; type: cell-based; details: % bezogen auf den Wirkstoff; am 5. Tag
Protocol: as §5, §6

[23] = tested on: Larven von Fichtenböcken; assay: Insecticidal activity, topical application to larvae; type: in vivo, Fichtenböcke; details: 10%ige Lösung
Excerpt: Die hohe insektizide Aktivität von Kalium-N-(vinyloxyathyl)dithiocarbamat und Zink-bis-(N-vinyloxyathyl- dithiocarbamat) wurde in Versuchen an Larven von Fichtenböcken nachgewiesen. Geprüft wurden die 10%igen wäßrigen (oder alkoholischen) Lösungen, welche auf die Kopfbrust von Larven aufgebracht wurden. In Versuchen standen je 20 Larven zur Verfügung. Die Versuche wurden dreimal wiederholt. Die Mortalität wurde nach 1, 24 und 48 Stunden ermittelt. Die insektizide Aktivität der erfindungsgemäßen Stoffe ist bedeutend höher als die von Chlorophos.
Die Prüfungen auf insektizide Aktivität werden an Larven von Fichtenböcken durchgeführt. Geprüft werden eine 10%ige wäßrige Lösung von Kalium-N-(vinyloxyäthyl)dithiocarbamat und eine 10%ige alkoholische Lösung von Zink-bis-N-(vinyloxyathyldithiocarbamat). In jedem Versuch stehen je 20 Larven zur Verfügung. Die Mortalität wird nach 1, 24 und 48 Stunden ermittelt. Die zu prüfenden Lösungen werden auf die Kopfbrust von Larven aufgebracht.

[24] = Acute toxicity (LD50) in mice; type: in vivo, weißen Mäusen; details: perorale Applikation an weißen Mäusen
[25] = Solubility in water (descriptive); type: physicochemical

Question: For “Zink-bis-(N-vinyloxyäthyldithiocarbamat)”, which Myzelhemmung in % ([1]; Präparatkonzentration 0,0015 %) is on record?
Answer: 50%

Question: And the Myzelhemmung in % ([1]; Präparatkonzentration 0,003 %)?
Answer: 100%

Question: And the Myzelhemmung in % ([1]; Präparatkonzentration 0,006 %)?
Answer: 100%

Question: And the Myzelhemmung in % ([1]; Präparatkonzentration 0,012 %)?
Answer: 100%

Question: And the Myzelhemmung in % ([2]; Präparatkonzentration 0,0015 %)?
Answer: 40%

Question: What about the Myzelhemmung in % ([2]; Präparatkonzentration 0,003 %) of the same substance?
Answer: 100%

Question: And the Myzelhemmung in % ([2]; Präparatkonzentration 0,006 %)?
Answer: 100%

Question: And the Myzelhemmung in % ([2]; Präparatkonzentration 0,012 %)?
Answer: 100%

Question: And the Myzelhemmung in % ([3]; Präparatkonzentration 0,0015 %)?
Answer: 100%

Question: And the Myzelhemmung in % ([3]; Präparatkonzentration 0,003 %)?
Answer: 100%

Question: And the Myzelhemmung in % ([3]; Präparatkonzentration 0,006 %)?
Answer: 100%

Question: What about the Myzelhemmung in % ([3]; Präparatkonzentration 0,012 %) of the same substance?
Answer: 100%

Question: What about the Myzelhemmung in % ([4]; Präparatkonzentration 0,0015 %) of the same substance?
Answer: 37,5%

Question: And the Myzelhemmung in % ([4]; Präparatkonzentration 0,003 %)?
Answer: 100%

Question: What about the Myzelhemmung in % ([4]; Präparatkonzentration 0,006 %) of the same substance?
Answer: 100%

Question: And the Myzelhemmung in % ([4]; Präparatkonzentration 0,012 %)?
Answer: 100%

Question: And the Myzelhemmung in % ([5]; Präparatkonzentration 0,0015 %)?
Answer: 29%

Question: What about the Myzelhemmung in % ([5]; Präparatkonzentration 0,003 %) of the same substance?
Answer: 100%

Question: What about the Myzelhemmung in % ([5]; Präparatkonzentration 0,006 %) of the same substance?
Answer: 100%

Question: What about the Myzelhemmung in % ([5]; Präparatkonzentration 0,012 %) of the same substance?
Answer: 100%

Question: And the Myzelhemmung in % ([6]; Präparatkonzentration 0,0015 %)?
Answer: 80%

Question: And the Myzelhemmung in % ([6]; Präparatkonzentration 0,003 %)?
Answer: 100%

Question: And the Myzelhemmung in % ([6]; Präparatkonzentration 0,006 %)?
Answer: 100%

Question: What about the Myzelhemmung in % ([6]; Präparatkonzentration 0,012 %) of the same substance?
Answer: 100%

Question: What about the Myzelhemmung in % ([7]; Präparatkonzentration 0,0015 %) of the same substance?
Answer: 90%

Question: And the Myzelhemmung in % ([7]; Präparatkonzentration 0,003 %)?
Answer: 100%

Question: What about the Myzelhemmung in % ([7]; Präparatkonzentration 0,006 %) of the same substance?
Answer: 100%

Question: What about the Myzelhemmung in % ([7]; Präparatkonzentration 0,012 %) of the same substance?
Answer: 100%

Question: What about the Myzelhemmung in % ([8]; Präparatkonzentration 0,0015 %) of the same substance?
Answer: 10%

Question: What about the Myzelhemmung in % ([8]; Präparatkonzentration 0,003 %) of the same substance?
Answer: 40%

Question: And the Myzelhemmung in % ([8]; Präparatkonzentration 0,006 %)?
Answer: 80%

Question: And the Myzelhemmung in % ([8]; Präparatkonzentration 0,012 %)?
Answer: 100%

Question: What about the Myzelhemmung in % ([9]; Präparatkonzentration 0,0015 %) of the same substance?
Answer: 52%

Question: What about the Myzelhemmung in % ([9]; Präparatkonzentration 0,003 %) of the same substance?
Answer: 100%

Question: And the Myzelhemmung in % ([9]; Präparatkonzentration 0,006 %)?
Answer: 100%

Question: And the Myzelhemmung in % ([9]; Präparatkonzentration 0,012 %)?
Answer: 100%

Question: What about the Myzelhemmung in % [10] of the same substance?
Answer: 100%

Question: And the Myzelhemmung in % [11]?
Answer: 100%

Question: And the Myzelhemmung in % ([12]; Tabelle 7)?
Answer: 90%

Question: What about the Myzelhemmung in % ([12]; Tabelle 8) of the same substance?
Answer: 90%

Question: And the Myzelhemmung in % [13]?
Answer: 100%

Question: And the Myzelhemmung in % [14]?
Answer: 100%

Question: And the Myzelhemmung in % [15]?
Answer: 100%

Question: What about the Myzelhemmung in % [16] of the same substance?
Answer: 100%

Question: And the Myzelhemmung in % [17]?
Answer: 100%

Question: What about the “Entwicklung von Wurzelschimmel vermindert sich gegenüber Kontrolle” value ([18]; Aufzucht von Gurken) of the same substance?
Answer: Ilfache

Question: What about the “Samenkeimung steigt gegenüber Kontrolle” value ([18]; Aufzucht von Gurken) of the same substance?
Answer: 11%

Question: What about the “Samenkeimung steigt gegenüber Milon (Vergleichmuster)” value ([18]; Aufzucht von Gurken) of the same substance?
Answer: 15%

Question: What about the Keimungshäufigkeit in % ([18]; Gurkensamen, 200 kg/ha Wirkstoff) of the same substance?
Answer: 85,1%

Question: What about the “Entwicklung von Krankheiten in %” value ([18]; Wurzelfäule von Gurken, 200 kg/ha Wirkstoff) of the same substance?
Answer: 4,0%

Question: What about the “Konzentrationen, welche das Bakterienwachstum völlig (100 %) hemmen” value (from here on “Konzentrationen … (100 %) hemmen”) [19] of the same substance?
Answer: 0,05%

Question: What about the “Konzentrationen … (100 %) hemmen” value [20] of the same substance?
Answer: 0,05%

Question: What about the “Konzentrationen … (100 %) hemmen” value [21] of the same substance?
Answer: 0,05%

Question: And the “Konzentrationen … (100 %) hemmen” value [22]?
Answer: 0,05%

Question: What about the “Mortalität von Larven der Fichtenböcke” value ([23]; Wirkungsdauer 1 Stunde) of the same substance?
Answer: 10%

Question: And the “Mortalität von Larven der Fichtenböcke” value ([23]; Wirkungsdauer 24 Stunden)?
Answer: 88%

Question: And the “Mortalität von Larven der Fichtenböcke” value ([23]; Wirkungsdauer 48 Stunden)?
Answer: 100%

Question: And the LD50 [24]?
Answer: 1120 ± 266 mg/kg

Question: And the “Löslichkeit in Wasser” value [25]?
Answer: wasserunlöslich
